These results are taken from ChEMBL document CHEMBL1123107, “Synthesis, stereochemistry, and analgesic activity of 4-mono- and 4,4-disubstituted 1,2,3,4,5,6-hexahydro-2,6-methano-3-benzazocines” (1985).

For orientation: ED50 means the midpoint of the dose-response relation.

Activity calls are given as the source filed them. The calls are words filed in the database; no cut-off is given here.

For one experiment, the species on record is Mus musculus. Kind of experiment: Compound was evaluated for analgesic activity in a mouse hotplate test. Type of experiment: functional.
The compound `C[C@@H]1CC2(C)CC(Cc3ccccc32)N1C` (some centres undefined) had a median effective dose (ED50) of 10.6 mg/kg.
On to `CC1CC2(C)CC(Cc3ccc(O)cc32)N1CC1CC1` (centres undefined), for which the 50% effect level (ED50) was put at a dose of 2.4 mg/kg.
The same measure, in the same setting: next, `C[C@H]1CC2(C)CC(Cc3ccccc32)N1C` (some centres undefined): 24.7 mg/kg; `C=CC[C@]1(C)CC2(C)CC(Cc3ccccc32)N1C` (some centres undefined): 3.7 mg/kg; `CC1CC2(C)CC(Cc3ccc(O)cc32)N1C` (centres undefined): 1.1 mg/kg.
Same read-out and setting: in the case of `CC1CC2(C)c3ccccc3CC(C2C)N1C` (centres undefined) it was 14.8 mg/kg.
Same read-out and setting: in the case of `CN1CC[C@]23c4c5ccc(O)c4O[C@H]2[C@@H](O)C=C[C@H]3[C@H]1C5.CN1CC[C@]23c4c5ccc(O)c4O[C@H]2[C@@H](O)C=C[C@H]3[C@H]1C5.O=S(=O)(O)O` it was 1.2 mg/kg.
`C=CCN1C(C)CC2(C)CC1Cc1ccc(O)cc12` (centres undefined): the median effective dose (ED50) turned out to be 4.2 mg/kg.

A further experiment relates to Mus musculus. Nature of the experiment: Compound was evaluated for analgesic activity in a mouse hotplate test; IA= Inactive at the dose level of 20 mg/kg. Also noted: dose 20 mg/kg. Type of experiment: functional, organism-based.
With `C=CC[C@@]1(C)CC2(C)CC(Cc3ccccc32)N1C` (some centres undefined), the ED50 entry is “inactive”.
The same measure, in the same setting: next, `CCC1CC2(C)c3ccccc3CC(C2C)N1C` (centres undefined): “inactive”.

For the next experiment, the system named is Mus musculus. Kind of experiment: Compound was evaluated for analgesic activity in a mouse hotplate test; IA= Inactive at the dose level of 50 mg/kg. Type of experiment: functional, organism-based. Further details: dose 50 mg/kg.
Turning to `CC1CN(C)C2Cc3ccc(O)cc3C1(C)C2` (centres undefined), the ED50 entry is “inactive”.

The species entered for the next experiment is Mus musculus. Kind of experiment: Compound was evaluated for analgesic activity in a mouse hotplate test; b= low level of activity exhibited which did not follow a dose-response relationship. It counts as functional, organism-based.
On to `CC1C2Cc3ccccc3C1(C)CC(CCc1ccccc1)N2C` (centres undefined), for which the 50% effective dose (ED50) result is “Low level of activity”.
As for `CN1C2Cc3ccccc3C(C)(C2)CC1(C)Cc1ccccc1` (centres undefined), the ED50 entry is on record as “Low level of activity”.
For `CC1C2Cc3ccccc3C1(C)CC(Cc1ccccc1)N2C` (centres undefined), the median effective dose (ED50) result was “Low level of activity”.
